According to patent US20260250320A1, “LIPIDATED PEPTIDE INHIBITORS OF INTERLEUKIN-23 RECEPTOR” (Janssen Pharmaceutica NV, priority 2023, published 2026):
*1 amine or outer side, *2 acyl side, *3 side chain or, on linkers, in order; H or OH if unused. Where a SMILES comes first, the peptide text is derived from it. Bridges are numbered along the chain shown (N, C = ends). Side-chain parts run from the residue outwards. [ ]: non-standard residue; d: D form. The star is where a group is joined. Me3N+(CH2)2O(CH2)2O(CH2)2CO = C[N+](C)(C)CCOCCOCCC(=O)*; CH2CH2OCH2CH2OCH2CH2NMe3+ = C[N+](C)(C)CCOCCOCC*; Trp(7-Me) = Cc1cccc2c(C[C@H](N)C(=O)O)c[nH]c12; C18 diacid = O=C(O)CCCCCCCCCCCCCCCCC(=O)*; γGlu = O=C(O)[C@H](CCC(=O)[*:2])N[*:1]; 2Nal = N[C@@H](Cc1ccc2ccccc2c1)C(=O)O; AEF = NCCOc1ccc(C[C@H](N)C(=O)O)cc1; 3Pal = N[C@@H](Cc1cccnc1)C(=O)O; Lys(Me) = CNCCCC[C@H](N)C(=O)O; Pen = CC(C)(S)[C@H](N)C(=O)O; Thp = NC1(C(=O)O)CCOCC1; X1 = C[N+](C)(C)CCCCC*; AEEA = NCCOCCOCC(=O)O; Sar = CNCC(=O)O

Biological target: T1, IL-23R (Homo sapiens, UniProt Q5VWK5)
T1 construct: HEK293 cells containing IL-23R, IL-12Rβ1 and a firefly luciferase reporter gene driven by a STAT-inducible promoter (Promega); host or cells: HEK293
T1 sequence (Q5VWK5 24-629): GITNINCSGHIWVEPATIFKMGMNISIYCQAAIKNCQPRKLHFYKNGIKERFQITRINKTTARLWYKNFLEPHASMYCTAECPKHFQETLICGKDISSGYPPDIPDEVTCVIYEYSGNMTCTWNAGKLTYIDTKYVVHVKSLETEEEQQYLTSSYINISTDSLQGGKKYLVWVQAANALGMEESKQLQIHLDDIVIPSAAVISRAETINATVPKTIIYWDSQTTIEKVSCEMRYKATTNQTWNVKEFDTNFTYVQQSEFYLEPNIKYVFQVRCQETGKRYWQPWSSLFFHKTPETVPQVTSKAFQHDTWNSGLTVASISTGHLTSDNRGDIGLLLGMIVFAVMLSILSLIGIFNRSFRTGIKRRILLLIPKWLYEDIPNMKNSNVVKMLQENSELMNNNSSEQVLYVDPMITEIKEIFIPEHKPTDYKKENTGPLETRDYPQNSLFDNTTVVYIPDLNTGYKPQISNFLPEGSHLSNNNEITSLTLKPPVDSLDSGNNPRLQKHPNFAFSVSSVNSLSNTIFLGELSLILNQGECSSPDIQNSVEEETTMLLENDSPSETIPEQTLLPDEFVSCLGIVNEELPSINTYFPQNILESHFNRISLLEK
Test: IL23R Reporter Assay
Type: cell-based
Conditions: HEK293 cells containing IL-23R, IL-12Rβ1 and STAT-inducible firefly luciferase reporter; 10 ng/mL IL-23 (EC90); 5 h
Protocol: Compounds were serially diluted in 100% (v/v) DMSO) and plated using an Echo acoustic dispenser (Labcyte) into 1536-well non-treated black assay plates (Corning #9146). 3 μL of HEK293 cells containing IL-23R, IL-12Rβ1 and a firefly luciferase reporter gene driven by a STAT-inducible promoter (Promega) were added to the plates (4000 cells/well), followed by 3 μL of 10 ng/mL IL-23 (equivalent to EC90 concentration). After 5 h at 37° C., 5% CO2, 95% relative humidity, cells were placed at 20° C. and treated with BioGlo reagent (Promega) according to the Manufacturer's instructions. Luminescence was measured on a Pherastar FSX (BMG LabTech). Data were normalized to IL-23 treatment (0% inhibition) and 30 μM of control inhibitor (100% inhibition), and IC50 values were determined using a 4-parameter Hill equation.

IC50 | SMILES
0.05 to 0.5 µM | CC(=O)NCCCC[C@@H]1NC(=O)[C@H](Cc2c[nH]c3c(C)cccc23)NC(=O)[C@H]([C@@H](C)O)NC(=O)[C@H](CC(N)=O)NC(=O)[C@@H](NC(=O)[C@@H](CCCNC(=N)N)NC(C)=O)C(C)(C)SSC(C)(C)[C@@H](C(=O)N[C@@H](Cc2ccc(OCCCCC[N+](C)(C)C)cc2)C(=O)N[C@@H](Cc2ccc3ccccc3c2)C(=O)NC2(C(=O)N[C@@H](CCC(=O)O)C(=O)N[C@@H](CC(N)=O)C(=O)N[C@@H](Cc3cccnc3)C(=O)N(C)CC(=O)N[C@@H](CCCCNC(=O)COCCOCCNC(=O)COCCOCCNC(=O)CC[C@H](NC(=O)CCCCCCCCCCCCCCCCC(=O)O)C(=O)O)C(N)=O)CCOCC2)NC1=O [compound 69, MeCO-r-Pen(3)-N-T-7MeW-K(Ac)-Pen(3)-TMAPF-2Nal-THP-E-N-3Pya-Sar-K(PEG2PEG2C18OH)-CONH2] (Ac-[dR][Pen]NT[Trp(7-Me)]K(Ac)[Pen]Y(X1)[2Nal][Thp]EN[3Pal][Sar]K([AEEA-AEEA-γGlu-C18 diacid])-NH2; disulfide 2-7)
< 0.05 µM | CC(=O)N(C)CCCC[C@@H]1NC(=O)[C@H](Cc2c[nH]c3c(C)cccc23)NC(=O)[C@H]([C@@H](C)O)NC(=O)[C@H](CC(=O)N(C)C)NC(=O)[C@@H](NC(=O)COCCOCCNC(=O)COCCOCCNC(=O)CC[C@H](NC(=O)CCCCCCCCCCCCCCCCC(=O)O)C(=O)O)C(C)(C)SSC(C)(C)[C@@H](C(=O)N[C@@H](Cc2ccc(OCCOCCOCC[N+](C)(C)C)cc2)C(=O)N[C@@H](Cc2ccc3ccccc3c2)C(=O)NC2(C(=O)N[C@@H](CCCCN(C)C(C)=O)C(=O)N[C@@H](CC(N)=O)C(=O)N[C@@H](Cc3cccnc3)C(=O)N(C)CC(=O)N(C)C)CCOCC2)NC1=O [compound 155, HOC18gEPEG2PEG2CO-Pen(3)-N(N(Me)2)-T-7MeW-K(NMeAc)-Pen(3)-APEG3F-2Nal-THP-K(NMeAc)-N-3Pya-Sar-CON(Me)2] ({C18 diacid-γGlu-AEEA-AEEA}-[Pen]D(NMe2)T[Trp(7-Me)][Lys(Me)](Ac)[Pen]Y(CH2CH2OCH2CH2OCH2CH2NMe3+)[2Nal][Thp][Lys(Me)](Ac)N[3Pal][Sar]-NMe2; disulfide 1-6)
≥ 0.5 µM | CC(=O)N(C)CCCC[C@@H]1NC(=O)[C@H](Cc2c[nH]c3c(C)cccc23)NC(=O)[C@H]([C@@H](C)O)NC(=O)[C@H](CC(=O)N(C)C)NC(=O)[C@@H](NC(=O)[C@H](CCCCNC(=O)COCCOCCNC(=O)COCCOCCNC(=O)CC[C@H](NC(=O)CCCCCCCCCCCCCCCCC(=O)O)C(=O)O)NC(=O)CCOCCOCC[N+](C)(C)C)C(C)(C)SSC(C)(C)[C@@H](C(=O)N[C@@H](Cc2ccc(OCCN)cc2)C(=O)N[C@@H](Cc2ccc3ccccc3c2)C(=O)NC2(C(=O)N[C@@H](CCCCN(C)C(C)=O)C(=O)N[C@@H](CC(N)=O)C(=O)N[C@@H](Cc3cccnc3)C(=O)N(C)CC(N)=O)CCOCC2)NC1=O [compound 68, cPEG3aCO-K(PEG2PEG2gEC18OH)-Pen(3)-N(N(Me)2)-T-7MeW-K(NMeAc)-Pen(3)-AEF-2Nal-THP-K(NMeAc)-N-3Pya-Sar-CONH2] ({Me3N+(CH2)2O(CH2)2O(CH2)2CO}-K([AEEA-AEEA-γGlu-C18 diacid])[Pen]D(NMe2)T[Trp(7-Me)][Lys(Me)](Ac)[Pen][AEF][2Nal][Thp][Lys(Me)](Ac)N[3Pal][Sar]-NH2; disulfide 2-7)
0.05 to 0.5 µM | CC(=O)NCCCC[C@@H]1NC(=O)[C@H](Cc2c[nH]c3c(C)cccc23)NC(=O)[C@H]([C@@H](C)O)NC(=O)[C@H](CC(N)=O)NC(=O)[C@@H](NC(C)=O)C(C)(C)SSC(C)(C)[C@@H](C(=O)N[C@@H](Cc2ccc(OCCN)cc2)C(=O)N[C@@H](Cc2ccc3ccccc3c2)C(=O)NC2(C(=O)N[C@@H](CCC(=O)O)C(=O)N[C@@H](CC(N)=O)C(=O)N[C@@H](Cc3cccnc3)C(=O)N(C)CC(=O)N[C@@H](CCCCNC(=O)COCCOCCNC(=O)COCCOCCNC(=O)CC[C@H](NC(=O)CCCCCCCCCCCCCCCCCCC(=O)O)C(=O)O)C(=O)NCCOCCOCC[N+](C)(C)C)CCOCC2)NC1=O [compound 93, MeCO-Pen(3)-N-T-7MeW-K(Ac)-Pen(3)-AEF-2Nal-THP-K(Ac)-N-3Pya-Sar-K(PEG2PEG2gEC20OH)-CONH(PEG3a)]
